Where a name gives a salt, the structure may show the parent alone.
biological target: human mOR (Homo sapiens (Human), UniProt P35372); test: cell-based; conditions: not given
Sequence (P35372 whole entry): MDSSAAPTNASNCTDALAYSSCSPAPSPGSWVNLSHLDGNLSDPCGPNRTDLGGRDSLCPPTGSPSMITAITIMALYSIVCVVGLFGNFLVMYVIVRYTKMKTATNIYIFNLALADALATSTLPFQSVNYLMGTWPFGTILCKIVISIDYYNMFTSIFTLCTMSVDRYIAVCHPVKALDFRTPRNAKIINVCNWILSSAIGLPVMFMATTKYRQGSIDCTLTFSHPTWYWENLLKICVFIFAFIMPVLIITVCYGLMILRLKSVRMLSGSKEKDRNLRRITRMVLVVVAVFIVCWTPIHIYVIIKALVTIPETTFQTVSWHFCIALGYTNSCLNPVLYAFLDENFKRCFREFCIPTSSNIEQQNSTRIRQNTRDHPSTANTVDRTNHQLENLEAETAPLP

First: CNC(=O)c1cc(C)c(C[C@@H](CNC(=O)C[C@H](c2ccccc2)C2(C(F)(F)F)CC2)N(C)C)cc1F [Compound 144, 4-((S)-2-(dimethylamino)-3-((R)-3-phenyl-3-(1-(trifluoromethyl)cyclopropyl)propanamido)propyl)-2-fluoro-N,5-dimethylbenzamide]
Second: CNC(=O)c1ccc(C[C@@H](CNC(=O)C[C@@H](c2ccccc2)C2(C(F)(F)F)CC2)N(C)C)cc1F [Compound 154, 4-((S)-2-(dimethylamino)-3-((S)-3-phenyl-3-(1-(trifluoromethyl)cyclopropyl)propanamido)propyl)-2-fluoro-N-methylbenzamide]
The IC50 of the first is higher: > 3 µM for the first, < 0.3 µM for the second. The second is the more potent here.

First: CNC(=O)c1ccc(C[C@@H](CNC(=O)C[C@@H](c2cncc(F)c2)C(C)(C)C)N(C)C)cc1F [Compound 151, 4-((S)-2-(dimethylamino)-3-((R)-3-(5-fluoropyridin-3-yl)-4,4-dimethylpentanamido)propyl)-2-fluoro-N-methylbenzamide]
Second: CCN(CC)[C@H](CNC(=O)C[C@@H](c1ccccc1)C(C)(C)C)Cc1ccc(C(=O)NC)c(F)c1 [Compound 166, 4-((S)-2-(diethylamino)-3-((R)-4,4-dimethyl-3-phenylpentanamido)propyl)-2-fluoro-N-methylbenzamide]
The IC50 of the first is higher: 0.3 to 3 µM for the first, < 0.3 µM for the second.

`CNC(=O)c1ccc(C[C@@H](CNC(=O)C[C@H](c2cnc(C)nc2)C2(C(F)(F)F)CC2)N(C)C)cc1F` [Compound 152, 4-((S)-2-(dimethylamino)-3-((R)-3-(2-methylpyrimidin-5-yl)-3-(1-(trifluoromethyl)cyclopropyl)propanamido)propyl)-2-fluoro-N-methylbenzamide] and `CNC(=O)c1ccc(C[C@@H](CNC(=O)C[C@@H](c2ccccn2)C2(C(F)(F)F)CC2)N(C)C)cc1F` [Compound 153, 4-((S)-2-(dimethylamino)-3-((R)-3-(pyridin-2-yl)-3-(1-(trifluoromethyl)cyclopropyl)propanamido)propyl)-2-fluoro-N-methylbenzamide] cannot be ordered by IC50: > 3 µM for the first, > 3 µM for the second.

Compared with `Cc1ncc([C@@H](CC(=O)NC[C@H](Cc2ccc3[nH]c(=O)oc3c2C)N(C)C)C2(C(F)(F)F)CC2)cn1` [Compound 169, (R)-N-((S)-2-(dimethylamino)-3-(7-methyl-2-oxo-2,3-dihydrobenzo[d]oxazol-6-yl)propyl)-3-(2-methylpyrimidin-5-yl)-3-(1-(trifluoromethyl)cyclopropyl)propanamide], `Cc1c(C[C@@H](CNC(=O)C[C@H](c2ccncc2)C2(C(F)(F)F)CC2)N(C)C)ccc2[nH]c(=O)oc12` [Compound 170, (R)-N-((S)-2-(dimethylamino)-3-(7-methyl-2-oxo-2,3-dihydrobenzo[d]oxazol-6-yl)propyl)-3-(pyridin-4-yl)-3-(1-(trifluoromethyl)cyclopropyl)propanamide] is lower in IC50: > 3 µM for the first, < 0.3 µM for the second.

`Cc1c(C[C@@H](CNC(=O)C[C@@H](CC2CC2)c2cccnc2)N(C)C)ccc2c1CC(=O)N2` [Compound 179, (R)-4-cyclopropyl-N-((S)-2-(dimethylamino)-3-(4-methyl-2-oxoindolin-5-yl)propyl)-3-(pyridin-3-yl)butanamide] and `Cc1c(C[C@@H](CNC(=O)C[C@H](c2cccnc2)C2(C(F)(F)F)CC2)N(C)C)ccc2c1CC(=O)N2` [Compound 180, (R)-N-((S)-2-(dimethylamino)-3-(4-methyl-2-oxoindolin-5-yl)propyl)-3-(pyridin-3-yl)-3-(1-(trifluoromethyl)cyclopropyl)propanamide] cannot be ordered by IC50: < 0.3 µM for the first, < 0.3 µM for the second.

`CN(C)[C@H](CNC(=O)C[C@H](c1ccccc1)C1(C(F)(F)F)CC1)Cc1ccc2c(c1)CC(=O)N2` [Compound 189, (R)-N-((S)-2-(dimethylamino)-3-(2-oxoindolin-5-yl)propyl)-3-phenyl-3-(1-(trifluoromethyl)cyclopropyl)propanamide] and `CN(C)[C@H](CNC(=O)C[C@@H](c1ccncc1)C1(C(F)(F)F)CC1)Cc1ccc2[nH]ncc2c1` [Compound 208, (S)-N-((S)-2-(dimethylamino)-3-(1H-indazol-5-yl)propyl)-3-(pyridin-4-yl)-3-(1-(trifluoromethyl)cyclopropyl)propanamide] cannot be ordered by IC50: < 0.3 µM for the first, < 0.3 µM for the second.

`CN(C)[C@H](CNC(=O)C[C@H](c1cccnc1)C1(C(F)(F)F)CC1)Cc1ccc2[nH]ncc2c1Cl` [Compound 192, (R)-N-((S)-3-(4-chloro-1H-indazol-5-yl)-2-(dimethylamino)propyl)-3-(pyridin-3-yl)-3-(1-(trifluoromethyl)cyclopropyl)propanamide] and `CN(C)[C@H](CNC(=O)C[C@H](c1cccnc1)C1(C(F)(F)F)CC1)Cc1ccc2[nH]ncc2c1F` [Compound 195, (R)-N-((S)-2-(dimethylamino)-3-(4-fluoro-1H-indazol-5-yl)propyl)-3-(pyridin-3-yl)-3-(1-(trifluoromethyl)cyclopropyl)propanamide] cannot be ordered by IC50: < 0.3 µM for the first, < 0.3 µM for the second.

`Cc1c(C[C@@H](CNC(=O)C[C@H](c2ccncc2)C2(C(F)(F)F)CC2)N(C)C)ccc2[nH]ncc12` [Compound 196, (R)-N-((S)-2-(dimethylamino)-3-(4-methyl-1H-indazol-5-yl)propyl)-3-(pyridin-4-yl)-3-(1-(trifluoromethyl)cyclopropyl)propanamide] and `Cc1c(C[C@@H](CNC(=O)C[C@H](c2cccnc2)C2(C(F)(F)F)CC2)N(C)C)ccc2[nH]ncc12` [Compound 197, (R)-N-((S)-2-(dimethylamino)-3-(4-methyl-1H-indazol-5-yl)propyl)-3-(pyridin-3-yl)-3-(1-(trifluoromethyl)cyclopropyl)propanamide] cannot be ordered by IC50: < 0.3 µM for the first, < 0.3 µM for the second.

`Cc1c(C[C@@H](CNC(=O)C[C@H](c2cccnc2)C2(C)CC2)N(C)C)ccc2[nH]ncc12` [Compound 199, (S)-N-((S)-2-(dimethylamino)-3-(4-methyl-1H-indazol-5-yl)propyl)-3-(1-methylcyclopropyl)-3-(pyridin-3-yl)propanamide] and `CN(C)[C@H](CNC(=O)C[C@H](c1cccnc1)C1(C)CC1)Cc1ccc2[nH]ncc2c1` [Compound 204, (S)-N-((S)-2-(dimethylamino)-3-(1H-indazol-5-yl)propyl)-3-(1-methylcyclopropyl)-3-(pyridin-3-yl)propanamide] cannot be ordered by IC50: < 0.3 µM for the first, < 0.3 µM for the second.

First: Cc1cncc([C@H](CC(=O)NC[C@H](Cc2ccc3[nH]ncc3c2)N(C)C)C2(C(F)(F)F)CC2)c1 [Compound 203, (S)-N-((S)-2-(dimethylamino)-3-(1H-indazol-5-yl)propyl)-3-(5-methylpyridin-3-yl)-3-(1-(trifluoromethyl)cyclopropyl)propanamide]
Second: CN(C)[C@H](CNC(=O)C[C@H](c1ccncc1)C1(C(F)(F)F)CC1)Cc1ccc2[nH]ncc2c1 [Compound 209]
The IC50 of the first is higher: 0.3 to 3 µM for the first, < 0.3 µM for the second. The second is the more potent here.

same assay, conditions: CHO Tag-lite human mOR stable cell line; forskolin 4 μM and DAMGO at EC90; read-out: mOR cAMP Antagonist Assay IC50

First: CN(C)[C@H](CNC(=O)C[C@@H](c1cccnc1)C1(C(F)(F)F)CC1)Cc1ccc2[nH]c(=O)oc2c1 [Compound 176, (S)-N-((S)-2-(dimethylamino)-3-(2-oxo-2,3-dihydrobenzo[d]oxazol-6-yl)propyl)-3-(pyridin-3-yl)-3-(1-(trifluoromethyl)cyclopropyl)propanamide]
Second: CN(C)[C@H](CNC(=O)C[C@@H](c1ccccc1)C1(C(F)(F)F)CC1)Cc1ccc2[nH]ncc2c1 [Compound 190, (S)-N-((S)-2-(dimethylamino)-3-(1H-indazol-5-yl)propyl)-3-phenyl-3-(1-(trifluoromethyl)cyclopropyl)propanamide]
The IC50 of the first is lower: < 0.3 µM for the first, 0.3 to 3 µM for the second.

Compared with `CN(C)[C@H](CNC(=O)CC(c1ncccn1)C1(C(F)(F)F)CC1)Cc1ccc2c(c1)CC(=O)N2` (stereo partly drawn) [Compound 188, N-((S)-2-(dimethylamino)-3-(2-oxoindolin-5-yl)propyl)-3-(pyrimidin-2-yl)-3-(1-(trifluoromethyl)cyclopropyl)propenamide], `Cc1cc([C@@H](CC(=O)NC[C@H](Cc2ccc3[nH]ncc3c2)N(C)C)C2(C(F)(F)F)CC2)ccn1` [Compound 202, (R)-N-((S)-2-(dimethylamino)-3-(1H-indazol-5-yl)propyl)-3-(2-methylpyridin-4-yl)-3-(1-(trifluoromethyl)cyclopropyl)propanamide] is lower in IC50: 0.3 to 3 µM for the first, < 0.3 µM for the second. The second is the more potent here.

`CN(C)[C@H](CNC(=O)C[C@H](c1ccncc1)C1(C(F)(F)F)CC1)Cc1ccc2[nH]ncc2c1Cl` [Compound 191, (R)-N-((S)-3-(4-chloro-1H-indazol-5-yl)-2-(dimethylamino)propyl)-3-(pyridin-4-yl)-3-(1-(trifluoromethyl)cyclopropyl)propanamide] and `CN(C)[C@H](CNC(=O)C[C@H](c1cncc(Cl)c1)C1(C(F)(F)F)CC1)Cc1ccc2[nH]ncc2c1` [Compound 205, (R)-3-(5-chloropyridin-3-yl)-N-((S)-2-(dimethylamino)-3-(1H-indazol-5-yl)propyl)-3-(1-(trifluoromethyl)cyclopropyl) propanamide] cannot be ordered by IC50: < 0.3 µM for the first, < 0.3 µM for the second.

First: CN[C@H](CNC(=O)C[C@H](c1cccnc1)C1(C(F)(F)F)CC1)Cc1ccc2[nH]ncc2c1 [Compound 200, (R)-N-((S)-3-(1H-indazol-5-yl)-2-(methylamino)propyl)-3-(pyridin-3-yl)-3-(1-(trifluoromethyl)cyclopropyl)propanamide]
Second: N[C@H](CNC(=O)C[C@H](c1cccnc1)C1(C(F)(F)F)CC1)Cc1ccc2[nH]ncc2c1 [Compound 201, (R)-N-((S)-2-amino-3-(1H-indazol-5-yl)propyl)-3-(pyridin-3-yl)-3-(1-(trifluoromethyl)cyclopropyl)propenamide dihydrochloride salt]
The IC50 of the first is lower: 0.3 to 3 µM for the first, > 3 µM for the second.

Compared with `CC(C)[C@H](CC(=O)NC[C@H](Cc1ccc2[nH]ncc2c1)N(C)C)c1cccnc1` [Compound 206, (S)-N-((S)-2-(dimethylamino)-3-(1H-indazol-5-yl)propyl)-4-methyl-3-(pyridin-3-yl)pentanamide], `CN(C)[C@H](CNC(=O)C[C@H](c1cccnc1)C1CC1)Cc1ccc2[nH]ncc2c1` [Compound 207, (S)-3-cyclopropyl-N-((S)-2-(dimethylamino)-3-(1H-indazol-5-yl)propyl)-3-(pyridin-3-yl)propanamide] is higher in IC50: 0.3 to 3 µM for the first, > 3 µM for the second. The first is the more potent here.

Source: patent publication US11634396B2 (priority 2021, dated 2023)
